Reference: ChEMBL document CHEMBL4270669 (J Med Chem, 2018)
Values after ≈ are worked out from the molar mass of the structure shown. Active and inactive are the calls of the source. No cut-off for these calls is given here.

Columns and labels:
[1] = biological target: T1, Serine/threonine-protein kinase mTOR (Homo sapiens, UniProt P42345); experiment: Binding affinity to mTOR FKBP12 site (unknown origin)
Mus musculus [2] = experiment: Toxicity in BALB/C nude mouse xenografted with human OVCAR3 cells assessed as body weight loss at 50 mg/kg, po administered daily for 28 days relative to control; assay type: organism-based; conditions: in vivo, 672 h
OVCAR-3 = experiment: Antitumor activity against human OVCAR3 cells xenografted in BALB/C nude mouse assessed as tumor growth inhibition at 50 mg/kg, po administered daily for 28 days relative to control; assay type: functional; conditions: OVCAR-3, po, 672 h, read-out: TGI
Mus musculus [3] = experiment: Increase in glucose levels in C57BL/6JRj mouse plasma at 50 mg/kg, po administered as single dose; assay type: functional, organism-based
Mus musculus [4] = experiment: Increase in insulin levels in C57BL/6JRj mouse plasma at 50 mg/kg, po administered as single dose; assay type: functional, organism-based
Rattus norvegicus [5] = experiment: Increase in glucose levels in Sprague-Dawley rat plasma at 10 mg/kg, po administered as single dose after 8 hrs; assay type: functional, organism-based
Rattus norvegicus [6] = experiment: Increase in insulin levels in Sprague-Dawley rat plasma at 10 mg/kg, po administered as single dose; assay type: functional, organism-based
Mus musculus [7] = experiment: Antiepileptic activity in Tsc1flox/flox/GFAP-Cre conditional knocked out mouse model assessed as reduction in seizures at 50 mg/kg, po qd treated from days 21 to 53 postnatal by electroencephalography; assay type: functional, organism-based
[8] = Lipophilicity, log D of the compound at pH 7.4; assay type: physicochemical; conditions: buffer
[9] = biological target: Phosphatidylinositol 4-kinase beta (Homo sapiens, UniProt Q9UBF8)
Description: Inhibition of human PI4Kbeta (1 to 828 residues) expressed in mammalian expression system by KINOMEscan assay

[10] = Toxicity in rat after 14 days; assay type: organism-based; conditions: in vivo
[11] = Thermodynamic solubility of the compound at pH 6.8; assay type: physicochemical; conditions: buffer, read-out: Therm_solubility
[12] = Thermodynamic solubility of the compound at pH 4.5; assay type: physicochemical; conditions: buffer, read-out: Therm_solubility
[13] = Drug uptake in Sprague-Dawley rat brain at 10 mg/kg, po administered as single dose measured at >8 hrs; assay type: ADME, organism-based; conditions: read-out: Drug uptake
[14] = Cmax in Sprague-Dawley rat plasma at 10 mg/kg, po administered as single dose after 30 mins; assay type: ADME, organism-based; design: dose 10 mg/kg, route oral
[15] = Inhibition of TORC2 in human A2058 cells assessed as decrease in PKB/Akt phosphorylation at Ser473 after 1 hr by Western blot analysis; assay type: cell-based; conditions: A2058, 1 h
[16] = Unbound fraction in rat brain; assay type: ADME, tissue-based
A 172 = experiment: Growth inhibition of human A172 cells after 72 hrs by ATPlite based assay; assay type: functional; conditions: A 172, 72 h, pooled result: one value given for 8 cell lines, strains, targets or settings
[17] = Half life in mouse hepatocytes; assay type: ADME, cell-based, Hepatocyte
[18] = biological target: T1, Serine/threonine-protein kinase mTOR
Description: Inhibition of human mTOR (1382 to 2549 residues) expressed in mammalian expression system by KINOMEscan assay

[19] = biological target: Phosphatidylinositol 4,5-bisphosphate 3-kinase catalytic subunit beta isoform (Homo sapiens, UniProt P42338)
Description: Inhibition of human PI3Kbeta (118 to 1070 residues) expressed in mammalian expression system by KINOMEscan assay

[20] = biological target: PDE4D2 (3',5'-cyclic-AMP phosphodiesterase 4D) (Homo sapiens, UniProt Q08499); experiment: Inhibition of recombinant human PDE4D2 at 10 uM using [3H]cAMP/cAMP by scintillation counting method relative to control; conditions: recombinant human PDE4D2, probe [3H]cAMP/cAMP
[21] = Cmax in C57BL/6JRj mouse brain at 50 mg/kg, po administered as single dose; assay type: ADME, organism-based; design: dose 50 mg/kg, route oral
[22] = biological target: Voltage-gated inwardly rectifying potassium channel KCNH2 (Homo sapiens, UniProt Q12809); experiment: Binding affinity to human ERG expressed in CHO cell membranes at 10 uM by radioligand displacement assay
[23] = AUC in Sprague-Dawley rat plasma at 10 mg/kg, po administered as single dose after 8 hrs; assay type: ADME, organism-based; design: dose 10 mg/kg, time < 8 hr, route oral
[24] = Thermodynamic solubility of the compound in FeSSIF; assay type: physicochemical; conditions: read-out: Therm_solubility
[25] = biological target: Phosphatidylinositol 3-kinase catalytic subunit type 3 (Homo sapiens, UniProt Q8NEB9); experiment: Inhibition of human VPS34 (282 to 879 residues) expressed in mammalian expression system by KINOMEscan assay
[26] = biological target: Phosphatidylinositol 4,5-bisphosphate 3-kinase catalytic subunit gamma isoform (Homo sapiens, UniProt P48736)
Description: Inhibition of human PI3Kgamma (144 to 1102 residues) expressed in mammalian expression system by KINOMEscan assay

[27] = Clearance in rat hepatocytes assessed per million cells; assay type: ADME, cell-based, Hepatocyte; conditions: read-out: CLH
[28] = Apparent permeability of the compound by PAMPA; assay type: ADME
[29] = Metabolic stability in rat liver microsomes assessed as compound remaining after 30 mins; assay type: ADME, microsome; conditions: read-out: Stability
[30] = Metabolic stability in mouse liver microsomes assessed as compound remaining after 30 mins; assay type: ADME, microsome; conditions: read-out: Stability
[31] = Thermodynamic solubility of the compound in FaSSIF; assay type: physicochemical; conditions: read-out: Therm_solubility
[32] = biological target: COX1 (Prostaglandin G/H synthase 1) (Homo sapiens, UniProt P23219); experiment: Inhibition of recombinant human COX1 at 10 uM using arachidonic acid/ADHP as substrate by fluorometric method relative to control; conditions: recombinant human COX1, probe arachidonic acid/ADHP
[33] = Ratio of drug level in C57BL/6JRj mouse brain to plasma at 50 mg/kg, po administered as single dose; assay type: ADME, organism-based; conditions: read-out: BPR
[34] = Thermodynamic solubility of the compound at pH 1.2; assay type: physicochemical; conditions: buffer, read-out: Therm_solubility
[35] = Half life in rat hepatocytes; assay type: ADME, cell-based, Hepatocyte
[36] = AUC in Sprague-Dawley rat brain at 10 mg/kg, po administered as single dose after 8 hrs; assay type: ADME, organism-based; design: dose 10 mg/kg, time < 8 hr, route oral; conditions: in vivo
[37] = biological target: T2, Phosphatidylinositol 4,5-bisphosphate 3-kinase catalytic subunit delta isoform (Homo sapiens, UniProt O00329)
T2 sequence (O00329 whole entry): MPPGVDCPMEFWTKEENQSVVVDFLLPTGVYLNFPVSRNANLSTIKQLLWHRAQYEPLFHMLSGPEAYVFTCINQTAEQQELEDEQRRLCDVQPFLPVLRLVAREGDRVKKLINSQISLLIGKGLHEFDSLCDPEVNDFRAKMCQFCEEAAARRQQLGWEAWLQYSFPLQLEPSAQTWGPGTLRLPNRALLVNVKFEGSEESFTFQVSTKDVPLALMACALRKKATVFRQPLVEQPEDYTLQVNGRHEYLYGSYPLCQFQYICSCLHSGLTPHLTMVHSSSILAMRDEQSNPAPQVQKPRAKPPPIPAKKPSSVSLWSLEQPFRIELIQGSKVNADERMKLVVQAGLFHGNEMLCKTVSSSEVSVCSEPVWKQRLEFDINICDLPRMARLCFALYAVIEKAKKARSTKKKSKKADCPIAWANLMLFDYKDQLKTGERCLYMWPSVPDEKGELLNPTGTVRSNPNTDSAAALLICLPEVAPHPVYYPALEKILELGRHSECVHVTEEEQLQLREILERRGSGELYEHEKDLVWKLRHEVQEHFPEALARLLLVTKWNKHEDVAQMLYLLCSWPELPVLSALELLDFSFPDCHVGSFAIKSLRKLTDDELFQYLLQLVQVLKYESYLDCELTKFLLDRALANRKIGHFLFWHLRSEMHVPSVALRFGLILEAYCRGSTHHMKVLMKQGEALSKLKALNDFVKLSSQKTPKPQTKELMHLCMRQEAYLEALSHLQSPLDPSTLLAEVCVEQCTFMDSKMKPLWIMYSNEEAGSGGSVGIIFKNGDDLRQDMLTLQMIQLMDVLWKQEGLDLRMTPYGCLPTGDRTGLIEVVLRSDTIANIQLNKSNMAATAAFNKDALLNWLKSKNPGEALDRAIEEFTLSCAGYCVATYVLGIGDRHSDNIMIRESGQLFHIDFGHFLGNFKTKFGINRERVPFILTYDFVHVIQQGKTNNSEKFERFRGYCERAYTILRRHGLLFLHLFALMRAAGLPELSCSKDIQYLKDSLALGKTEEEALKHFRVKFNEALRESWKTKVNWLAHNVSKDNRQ
Description: Inhibition of human PI3Kdelta (108 to 1044 residues) expressed in mammalian expression system by KINOMEscan assay

[38] = biological target: T3, Phosphatidylinositol 4,5-bisphosphate 3-kinase catalytic subunit alpha isoform (Homo sapiens, UniProt P42336)
Description: Inhibition of human PI3Kalpha (108 to 1068 residues) expressed in mammalian expression system by KINOMEscan assay

[39] = biological target: T3, Phosphatidylinositol 4,5-bisphosphate 3-kinase catalytic subunit alpha isoform; remark: listed apart in the source
[40] = Clearance in mouse hepatocytes assessed per million cells; assay type: ADME, cell-based, Hepatocyte; conditions: read-out: CLH
[41] = Inhibition of TORC1 in human A2058 cells assessed as decrease in S6 phosphorylation at Ser235/236 after 1 hr by Western blot analysis; assay type: cell-based; conditions: A2058, 1 h
[42] = Toxicity in mouse; assay type: organism-based; conditions: in vivo
Rattus norvegicus [43] = experiment: Increase in glucose levels in Sprague-Dawley rat plasma at 10 mg/kg, po administered as single dose; assay type: functional, organism-based
[44] = biological target: T1, Serine/threonine-protein kinase mTOR; remark: listed apart in the source
Mus musculus [45] = experiment: Antiepileptic activity in Tsc1flox/flox/GFAP-Cre conditional knocked out mouse model assessed as reduction in seizures at 100 mg/kg, po qd treated from days 21 to 53 postnatal by electroencephalography; assay type: functional, organism-based
[46] = Cmax in Sprague-Dawley rat brain at 10 mg/kg, po administered as single dose after 30 mins; assay type: ADME, organism-based; design: dose 10 mg/kg, route oral
[47] = Ratio of drug level in Sprague-Dawley rat brain to plasma at 10 mg/kg, po administered as single dose; assay type: ADME, organism-based; conditions: read-out: BPR

T3 sequence (P42336 whole entry, canonical isoform): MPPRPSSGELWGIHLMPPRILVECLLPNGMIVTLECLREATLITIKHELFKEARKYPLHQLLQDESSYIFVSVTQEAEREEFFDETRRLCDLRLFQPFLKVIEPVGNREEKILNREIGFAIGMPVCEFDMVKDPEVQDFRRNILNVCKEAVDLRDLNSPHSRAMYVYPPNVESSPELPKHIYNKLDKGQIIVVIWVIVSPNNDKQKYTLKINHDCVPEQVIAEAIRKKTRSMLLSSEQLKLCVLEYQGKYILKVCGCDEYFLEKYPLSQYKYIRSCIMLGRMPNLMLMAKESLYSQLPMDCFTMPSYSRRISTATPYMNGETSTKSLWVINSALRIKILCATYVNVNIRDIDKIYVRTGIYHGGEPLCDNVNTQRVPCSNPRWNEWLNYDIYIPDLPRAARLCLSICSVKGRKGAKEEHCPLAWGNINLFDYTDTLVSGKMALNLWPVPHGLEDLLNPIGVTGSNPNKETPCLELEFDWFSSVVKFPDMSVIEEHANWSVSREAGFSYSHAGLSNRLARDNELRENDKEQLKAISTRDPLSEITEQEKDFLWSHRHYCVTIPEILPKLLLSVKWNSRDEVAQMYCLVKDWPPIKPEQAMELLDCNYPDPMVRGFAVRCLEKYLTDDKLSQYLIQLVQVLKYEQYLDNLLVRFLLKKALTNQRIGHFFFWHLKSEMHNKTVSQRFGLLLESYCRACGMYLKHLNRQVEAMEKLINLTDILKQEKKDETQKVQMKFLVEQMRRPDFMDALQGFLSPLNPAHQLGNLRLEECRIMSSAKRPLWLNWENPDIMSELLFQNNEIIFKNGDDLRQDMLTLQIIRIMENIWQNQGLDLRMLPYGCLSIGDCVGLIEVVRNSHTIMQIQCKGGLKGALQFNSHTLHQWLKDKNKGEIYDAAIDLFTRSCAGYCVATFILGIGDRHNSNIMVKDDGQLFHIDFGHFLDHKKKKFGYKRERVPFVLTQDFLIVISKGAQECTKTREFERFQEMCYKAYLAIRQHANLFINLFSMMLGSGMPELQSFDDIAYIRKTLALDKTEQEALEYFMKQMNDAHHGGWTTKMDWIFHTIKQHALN
Chain of Voltage-gated inwardly rectifying potassium channel KCNH2 (Q12809 whole entry): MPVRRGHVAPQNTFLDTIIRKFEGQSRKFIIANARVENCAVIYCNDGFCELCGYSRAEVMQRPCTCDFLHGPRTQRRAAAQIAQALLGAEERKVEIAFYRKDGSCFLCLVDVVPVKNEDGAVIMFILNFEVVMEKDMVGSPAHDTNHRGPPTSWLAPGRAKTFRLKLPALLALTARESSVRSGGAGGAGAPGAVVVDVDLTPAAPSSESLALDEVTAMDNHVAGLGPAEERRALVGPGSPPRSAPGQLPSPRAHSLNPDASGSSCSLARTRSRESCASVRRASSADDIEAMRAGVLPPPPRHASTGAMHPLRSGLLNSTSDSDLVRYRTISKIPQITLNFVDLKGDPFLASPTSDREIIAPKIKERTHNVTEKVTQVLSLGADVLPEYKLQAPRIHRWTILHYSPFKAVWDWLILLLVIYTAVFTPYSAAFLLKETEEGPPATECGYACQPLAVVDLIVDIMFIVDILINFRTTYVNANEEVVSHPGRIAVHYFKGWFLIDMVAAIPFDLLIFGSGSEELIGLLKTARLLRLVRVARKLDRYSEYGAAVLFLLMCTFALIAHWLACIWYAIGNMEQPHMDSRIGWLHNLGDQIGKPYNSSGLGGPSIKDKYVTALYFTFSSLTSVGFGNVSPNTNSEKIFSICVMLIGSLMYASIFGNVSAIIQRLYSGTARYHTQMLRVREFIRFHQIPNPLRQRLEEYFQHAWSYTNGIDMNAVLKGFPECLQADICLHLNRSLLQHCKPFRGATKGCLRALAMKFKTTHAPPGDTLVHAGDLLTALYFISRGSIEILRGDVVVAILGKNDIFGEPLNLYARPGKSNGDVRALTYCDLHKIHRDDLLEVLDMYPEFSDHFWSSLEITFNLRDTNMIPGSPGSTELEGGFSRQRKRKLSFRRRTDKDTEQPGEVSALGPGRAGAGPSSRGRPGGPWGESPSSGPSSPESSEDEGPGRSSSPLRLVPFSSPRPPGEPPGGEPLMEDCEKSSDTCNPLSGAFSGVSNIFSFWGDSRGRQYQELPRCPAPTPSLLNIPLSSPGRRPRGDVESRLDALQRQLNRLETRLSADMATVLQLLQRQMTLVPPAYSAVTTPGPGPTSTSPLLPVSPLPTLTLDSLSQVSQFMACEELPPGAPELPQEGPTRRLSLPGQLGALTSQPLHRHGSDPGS
Chain of COX1 (Prostaglandin G/H synthase 1) (P23219 whole entry): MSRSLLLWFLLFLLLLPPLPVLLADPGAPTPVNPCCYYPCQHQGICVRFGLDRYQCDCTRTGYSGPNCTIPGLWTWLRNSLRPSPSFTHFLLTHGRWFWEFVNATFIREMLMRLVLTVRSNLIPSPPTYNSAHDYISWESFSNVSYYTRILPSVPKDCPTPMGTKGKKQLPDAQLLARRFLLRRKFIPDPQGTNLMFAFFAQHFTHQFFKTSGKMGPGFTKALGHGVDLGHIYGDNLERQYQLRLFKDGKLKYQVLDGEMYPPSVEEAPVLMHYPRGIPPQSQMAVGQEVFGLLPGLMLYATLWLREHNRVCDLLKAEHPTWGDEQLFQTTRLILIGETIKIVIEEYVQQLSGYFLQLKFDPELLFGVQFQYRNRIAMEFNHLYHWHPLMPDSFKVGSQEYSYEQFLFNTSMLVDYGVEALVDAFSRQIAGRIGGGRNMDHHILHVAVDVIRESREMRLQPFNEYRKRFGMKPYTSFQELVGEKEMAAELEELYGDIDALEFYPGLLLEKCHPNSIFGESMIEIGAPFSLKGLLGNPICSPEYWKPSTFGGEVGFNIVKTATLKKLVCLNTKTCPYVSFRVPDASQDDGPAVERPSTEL
Chain of Phosphatidylinositol 4,5-bisphosphate 3-kinase catalytic subunit gamma isoform (P48736 whole entry, canonical isoform): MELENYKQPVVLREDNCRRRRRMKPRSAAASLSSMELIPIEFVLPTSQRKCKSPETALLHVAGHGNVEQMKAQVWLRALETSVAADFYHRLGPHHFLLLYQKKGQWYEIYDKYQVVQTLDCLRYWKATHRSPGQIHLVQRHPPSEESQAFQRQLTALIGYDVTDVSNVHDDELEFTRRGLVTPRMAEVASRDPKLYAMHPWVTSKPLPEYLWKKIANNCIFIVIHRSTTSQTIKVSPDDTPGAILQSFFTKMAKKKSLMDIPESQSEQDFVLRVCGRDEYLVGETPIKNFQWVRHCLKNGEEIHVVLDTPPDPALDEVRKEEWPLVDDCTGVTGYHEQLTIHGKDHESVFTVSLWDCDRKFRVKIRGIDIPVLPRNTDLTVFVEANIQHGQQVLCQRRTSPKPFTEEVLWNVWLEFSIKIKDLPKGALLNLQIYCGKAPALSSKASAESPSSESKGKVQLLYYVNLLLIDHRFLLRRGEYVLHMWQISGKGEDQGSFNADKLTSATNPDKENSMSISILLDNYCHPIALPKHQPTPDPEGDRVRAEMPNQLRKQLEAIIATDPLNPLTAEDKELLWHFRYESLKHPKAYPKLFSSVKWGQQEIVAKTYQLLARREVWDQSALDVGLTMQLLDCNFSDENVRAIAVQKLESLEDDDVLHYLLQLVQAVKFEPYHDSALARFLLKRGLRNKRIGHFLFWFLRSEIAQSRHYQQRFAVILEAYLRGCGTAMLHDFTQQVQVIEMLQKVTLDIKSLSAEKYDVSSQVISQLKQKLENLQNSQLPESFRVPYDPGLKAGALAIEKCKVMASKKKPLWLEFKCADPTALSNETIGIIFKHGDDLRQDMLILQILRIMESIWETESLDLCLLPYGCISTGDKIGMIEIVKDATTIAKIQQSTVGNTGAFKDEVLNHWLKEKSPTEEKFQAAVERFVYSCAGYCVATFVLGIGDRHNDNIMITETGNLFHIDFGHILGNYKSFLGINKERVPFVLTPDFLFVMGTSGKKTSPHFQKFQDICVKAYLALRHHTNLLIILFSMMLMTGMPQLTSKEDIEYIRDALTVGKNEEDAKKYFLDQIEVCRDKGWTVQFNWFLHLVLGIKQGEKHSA
Chain of Phosphatidylinositol 4,5-bisphosphate 3-kinase catalytic subunit beta isoform (P42338 whole entry, canonical isoform): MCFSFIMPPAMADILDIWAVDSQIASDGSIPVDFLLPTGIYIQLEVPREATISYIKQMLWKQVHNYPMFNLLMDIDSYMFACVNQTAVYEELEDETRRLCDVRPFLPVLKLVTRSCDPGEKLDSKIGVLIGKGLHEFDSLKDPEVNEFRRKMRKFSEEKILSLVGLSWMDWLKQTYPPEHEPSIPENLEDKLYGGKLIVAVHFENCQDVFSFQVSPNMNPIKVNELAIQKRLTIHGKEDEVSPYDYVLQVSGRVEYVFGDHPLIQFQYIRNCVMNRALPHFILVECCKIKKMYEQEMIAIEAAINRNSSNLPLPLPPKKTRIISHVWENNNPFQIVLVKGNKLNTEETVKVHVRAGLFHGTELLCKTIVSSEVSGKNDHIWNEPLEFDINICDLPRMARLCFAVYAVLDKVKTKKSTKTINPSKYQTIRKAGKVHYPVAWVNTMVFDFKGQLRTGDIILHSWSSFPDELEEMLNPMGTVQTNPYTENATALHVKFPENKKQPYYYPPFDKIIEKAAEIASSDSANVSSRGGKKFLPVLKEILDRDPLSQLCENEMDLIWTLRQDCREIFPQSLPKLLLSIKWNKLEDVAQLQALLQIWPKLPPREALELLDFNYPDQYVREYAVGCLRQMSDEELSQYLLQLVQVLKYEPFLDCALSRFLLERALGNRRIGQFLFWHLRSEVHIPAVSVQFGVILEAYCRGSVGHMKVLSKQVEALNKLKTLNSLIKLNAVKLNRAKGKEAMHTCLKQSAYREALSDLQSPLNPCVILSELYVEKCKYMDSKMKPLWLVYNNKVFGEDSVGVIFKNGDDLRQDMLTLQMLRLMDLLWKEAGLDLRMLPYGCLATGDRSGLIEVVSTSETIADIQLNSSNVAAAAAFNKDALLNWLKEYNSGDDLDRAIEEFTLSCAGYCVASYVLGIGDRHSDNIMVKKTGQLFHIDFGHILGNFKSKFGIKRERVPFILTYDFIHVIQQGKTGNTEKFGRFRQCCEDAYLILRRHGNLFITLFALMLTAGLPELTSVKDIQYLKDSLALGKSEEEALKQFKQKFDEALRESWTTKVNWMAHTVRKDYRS

CO[C@H]1C[C@@H]2CC[C@@H](C)[C@@](O)(O2)C(=O)C(=O)N2CCCC[C@H]2C(=O)O[C@H]([C@H](C)C[C@@H]2CC[C@@H](OCCO)[C@H](OC)C2)CC(=O)[C@H](C)/C=C(\C)[C@@H](O)[C@@H](OC)C(=O)[C@H](C)C[C@H](C)/C=C/C=C/C=C/1C [EVEROLIMUS]
Kd [1]: 2 nM

Nc1cc(C(F)(F)F)c(-c2nc(N3CCOCC3)nc(N3CCOCC3)n2)cn1 [BIMIRALISIB]
Activity (Mus musculus [2]): Non-Toxic
inhibition in vivo at 50 mg/kg (OVCAR-3): > 50%
Activity (Mus musculus [3]): Active
Activity (Mus musculus [4]): Active
Activity (Rattus norvegicus [5]): Active
Activity (Rattus norvegicus [6]): Active
Activity (Mus musculus [7]): inactive

Nc1cc(C(F)F)c(-c2nc(N3C4CCC3COC4)nc(N3C4CCC3COC4)n2)cn1
logD [8]: 3.47
Kd [9]: > 30000 nM
MTD at 336 h [10]: 30 mg/kg
solubility thermodynamic [11]: 33.7 µM (≈ 15 µg/mL)
solubility thermodynamic [12]: 78.2 µM (≈ 34.8 µg/mL)
concentration at 8 h [13]: 900 ng/g
Cmax [14]: 1360 ng/mL
IC50 [15]: 190 nM
fraction unbound [16]: 0.03
Activity (Mus musculus [2]): Non-Toxic
IC50 (A 172): 920 nM
half-life [17]: 5.41 h
Kd [18]: 0.27 nM
Kd [19]: 22000 nM
inhibition at 10 µM [20]: < 50%
Cmax [21]: 7710 ng/g
inhibition in vivo at 50 mg/kg (OVCAR-3): > 50%
Activity (Mus musculus [3]): Active
Activity (Mus musculus [4]): inactive
inhibition (INH) [22]: Not Active
AUC at 8 h [23]: 409 µg·h/mL
solubility thermodynamic [24]: 335 µM (≈ 149 µg/mL)
Kd [25]: 2750 nM
Kd [26]: 18000 nM
hepatocyte CLint [27]: 1.85 µL/min/1e6 cells
Papp [28]: 5.22 ×10⁻⁶ cm/s
remaining at 0.5 h [29]: 108%
remaining at 0.5 h [30]: 70.2%
solubility thermodynamic [31]: 66 µM (≈ 29.4 µg/mL)
inhibition at 10 µM [32]: < 50%
Kp [33]: 1.6
solubility thermodynamic [34]: 20000 µM (≈ 8890 µg/mL)
Activity (Rattus norvegicus [6]): inactive
half-life [35]: 7.81 h
AUC [36]: 404 µg·h/g
Kd [37]: 23000 nM
Kd [38]: 1000 nM
Ki [39]: 4200 nM
hepatocyte CLint [40]: 2.67 µL/min/1e6 cells
IC50 [41]: 85.2 nM
MTD [42]: 150 mg/kg
Activity (Rattus norvegicus [43]): inactive
Ki [44]: 10.8 nM
Activity (Mus musculus [45]): Active
Cmax [46]: 1310 ng/g
Kp [47]: 1
